Measured values reported in patent publication US20250354185A1, “BLUE PIGMENT AND BIOSYNTHESIS METHOD THEREOF” (VERTEXYN BIOWORKS CO., LTD., priority 2024, published 2025).

Legend:
Type in all cases: physicochemical
[1] = Ultraviolet-visible absorption spectrum of HPLC product peaks; settings: HPLC peaks of experimental group 5 (8.8 min indigoidine, 9.9 min N-acetyl-indigoidine)
Experimental: Wavelength: 600 nm. Flow rate: 1.0 mL/min. Sample solvent: DMSO. Injection volume: 10 μL. Column temperature: 35° C. Running time: 18 min.
Experimental group 5:50 mL of a fermentation broth of the strain HG-N-Idg01 cultured according to the method in Example 2 was collected and centrifuged to produce a cell pellet. The cell pellet was resuspended with 10 mL of a catalytic solution (including 1 g/L of glutaminc, 1 g/L of N-acetylglutamine, and 50 mM of a phosphate buffer), and a reaction was allowed at 25° C. and 220 rpm for 6 h. 100 μL of a sample was collected and tested by HPLC.
FIG. 2A and FIG. 2B show the wavelengths corresponding to the maximum absorption peaks of the experimental group 5.

[2] = Comparison of colors of solutions in water (ddH2O); settings: 1 mg dissolved with 10 mL of ddH2O; visual observation
Experimental: 1 mg of an indigoidine standard was weighed and dissolved with 10 mL of ddH2O to produce a solution of indigoidine in ddH2O. 1 mg of N-acetyl-indigoidine purified in Example 4 was weighed and dissolved with 10 mL of ddH2O to produce a solution of N-acetyl-indigoidine in ddH2O. A color difference between the solution of indigoidine in ddH2O and the solution of N-acetyl-indigoidine in ddH2O was observed, and results were shown in FIG. 17A and FIG. 17B. […] It can be seen that N-acetyl-indigoidine has a more authentic color than indigoidine.

[3] = Comparison of colors of solutions in DMSO; settings: 1 mg dissolved with 10 mL of DMSO; visual observation
Experimental: 1 mg of an indigoidine standard was weighed and dissolved with 10 mL of DMSO to produce a solution of indigoidine in DMSO. 1 mg of N-acetyl-indigoidine purified in Example 4 was weighed and dissolved with 10 mL of DMSO to produce a solution of N-acetyl-indigoidine in DMSO. A color difference between the solution of indigoidine in DMSO and the solution of N-acetyl-indigoidine in DMSO was observed, and results were shown in FIG. 16A and FIG. 16B. […] The solution of N-acetyl-indigoidine in DMSO has a more vibrant and brighter color than the solution of indigoidine in DMSO.

Row | Molecule | wavelength corresponding to the maximum absorption peak [1] [nm] | color of the solution in ddH2O [2] | color of the solution in DMSO [3]
1 | CC(=O)NC1=C/C(=C2/C=C(N)C(=O)NC2=O)C(=O)NC1=O [N-acetyl-indigoidine] | 584 | blue | bright-blue
2 | Indigoidine | 600 | purple-blue | blue
